pIC50: −log10 of the molar value.
Each compound was assayed against PI 3-kinase alpha (Homo sapiens (Human), UniProt P42336) (assay: Cellular p-Akt (S473) SureFire assay, Rat-1_PI3Kalpha cells (Assay H)). Details: p-AKT (Ser473) in Rat-1 cells expressing myr-HA-hp110 alpha, 1 h compound; read-out: Assay H PI3Kα IC50.
Assay type: cell-based
Source text: Cellular Assays for PI 3-Kinase Alpha (H), Beta (I) and Delta (J)
AlphaScreen (Amplified Luminescent Proximity Homogeneous Assay, ALPHA, Perkin Elmer) is a non-radioactive bead-based proximity assay technology to study biomolecular interactions in a homogenous microtiter plate format. The brand name SureFire denotes AlphaScreen assays that are adapted to quantify the phosphorylation of endogenous cellular proteins in cell lysates, by using matched antibody pairs, which consist of an anti-phospho-kinase and an anti-kinase antibody. The assay allows characterization of kinase signaling in cells as well as measurement of kinase inhibitor effects.
Rat-1 cell lines stably overexpressing activated PI 3-kinase class I isoforms Rat-1 pBABEpuro Myr-HA-hp110 delta clone 5 (Rat-1_PI3Kdelta) and Rat-1 pBABEpuro Myr-HA-hp110 alpha clone 6 (Rat-1_PI3Kalpha) and Rat-1 pBABEpuro Myr-HA-hp110 beta (Rat-1_PI3beta) were cultivated in complete growth medium (DMEM high glucose, 10% (v/v) fetal bovine serum, 1% (v/v) MEM NEAA, 10 mM HEPES, 2 mM L-glutamine, puromycin (10 μg/mL for Rat-1_PI3Kdelta and Rat-1_PI3Kalpha, 4 ug/mL for Rat-1_PI3beta), 1% (v/v) Pen/Strep) to 90% confluency at 37° C./5% CO2/90% humidity in a humidified CO2 incubator and were split twice a week. The following materials were used for p-AKT(5473) detection in Rat-1 cell lysates: Dulbecco's modified Eagle's medium (DMEM) high glucose (Gibco Invitrogen, Basel, Switzerland, Cat. No. 41965), heat inactivated fetal bovine serum, qualified (HI FBS; Gibco Invitrogen, Basel, Switzerland, Lot. No. 16140), MEM non essential amino acids (NEAA; Gibco Invitrogen, Basel, Switzerland, Cat. No. 11140), HEPES (Gibco Invitrogen, Basel, Switzerland, Cat. No. 15630), penicillin/streptomycin (Pen/Strep, 100×; Gibco Invitrogen, Basel, Switzerland, Cat. No. 15140-122), L-glutamine (Gibco Invitrogen, Basel, Switzerland, Cat. No. 25030), puromycin (Sigma Aldrich, Buchs, Switzerland, Cat. No. P9620), DMSO (MERCK, Dietikon, Switzerland, Cat. No. 8.02912.2500), H2O, MilliQ-H2O unless otherwise stated (MILLIPORE QGARDOOR1, Millipore, Zug, Switzerland), bovine serum albumine (BSA; Sigma Aldrich, Buchs, Switzerland Cat. No. A8412), SureFire p-Akt 1/2 (Ser473) Assay Kit (Perkin Elmer, Schwerzenbach, Switzerland, Cat. No. TGRAS50K).
The p-Akt (S473) SureFire assay measures the phosphorylation of endogenous cellular Akt 1/2 at Ser473 in cell lysates. Using Rat-1 cells stably expressing myr-HA-tagged versions of the human PI3Kdelta, PI3Kalpha, or PI3Kbeta p110 catalytic subunit isoforms, the assay was developed as a two-plate protocol in a 384-well format.
For compound testing, the cells were seeded at a density of 4000 (Rat-1_PI3Kdelta), 7500 (Rat-1_PI3Kalpha), or 6200 (Rat-1_PI3Kbeta) cells in 20 μl complete growth medium into cell culture treated 384-well plates and were grown at 37° C./5% CO2/90% humidity for 24 h. Shortly before compound transfer, the complete medium was removed, 30 μl assay buffer (DMEM high glucose, 1×MEM NEAA, 10 mM HEPES, 2 mM L-glutamine, 0.1% (w/v) BSA) was added and 10 μl of the compound predilutions were transferred to the cells. After treatment with compound for 1 h, the cells were lysed by the addition of 20 μl lysis buffer supplemented with 0.24% (w/v) BSA. Detection of p-AKT (Ser473) was performed with the SureFire p-Akt 1/2 (Ser473) Assay Kit according to the manufacturer's instructions using 5 ul of cell lysate in a total detection volume of 12 μl.
IC50 values of the percentage inhibition of each compound at 8 concentrations (usually 10, 3.0, 1.0, 0.3, 0.1, 0.030, 0.010 and 0.003 μM) n=2 were derived by fitting a sigmoidal dose-response curve to a plot of assay readout over inhibitor concentration as described. All fits were performed with the program XLfit4 (ID Business Solutions, Guildford, UK).

Sequence of PI 3-kinase alpha (P42336 whole entry): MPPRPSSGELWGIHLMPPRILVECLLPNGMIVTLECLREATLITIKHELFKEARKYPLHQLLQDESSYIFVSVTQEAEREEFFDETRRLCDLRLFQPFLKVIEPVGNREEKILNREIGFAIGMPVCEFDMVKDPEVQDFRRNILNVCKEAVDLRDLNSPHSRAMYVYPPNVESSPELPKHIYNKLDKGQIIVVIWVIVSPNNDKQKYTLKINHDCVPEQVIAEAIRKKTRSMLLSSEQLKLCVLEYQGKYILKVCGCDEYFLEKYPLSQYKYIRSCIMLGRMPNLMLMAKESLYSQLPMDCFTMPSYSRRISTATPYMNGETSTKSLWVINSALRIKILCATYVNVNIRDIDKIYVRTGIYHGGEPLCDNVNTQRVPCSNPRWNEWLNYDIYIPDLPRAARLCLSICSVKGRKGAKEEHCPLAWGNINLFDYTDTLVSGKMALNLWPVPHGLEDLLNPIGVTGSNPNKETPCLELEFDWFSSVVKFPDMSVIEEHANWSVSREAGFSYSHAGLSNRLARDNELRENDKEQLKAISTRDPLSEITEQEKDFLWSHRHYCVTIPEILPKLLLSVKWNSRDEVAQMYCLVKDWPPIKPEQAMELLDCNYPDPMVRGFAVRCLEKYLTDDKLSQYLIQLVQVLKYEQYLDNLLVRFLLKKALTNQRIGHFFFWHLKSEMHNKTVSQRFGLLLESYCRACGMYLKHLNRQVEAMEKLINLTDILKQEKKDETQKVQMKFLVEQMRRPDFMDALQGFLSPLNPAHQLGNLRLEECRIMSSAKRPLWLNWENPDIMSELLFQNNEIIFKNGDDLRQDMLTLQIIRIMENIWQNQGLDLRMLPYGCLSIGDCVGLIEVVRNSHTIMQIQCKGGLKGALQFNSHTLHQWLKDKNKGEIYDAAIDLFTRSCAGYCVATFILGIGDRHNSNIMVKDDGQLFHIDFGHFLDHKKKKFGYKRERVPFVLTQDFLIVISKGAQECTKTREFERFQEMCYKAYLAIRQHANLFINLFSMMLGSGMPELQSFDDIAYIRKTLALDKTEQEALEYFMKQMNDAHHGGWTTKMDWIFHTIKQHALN
Sequence of PI 3-kinase alpha (Q63787 whole entry partner): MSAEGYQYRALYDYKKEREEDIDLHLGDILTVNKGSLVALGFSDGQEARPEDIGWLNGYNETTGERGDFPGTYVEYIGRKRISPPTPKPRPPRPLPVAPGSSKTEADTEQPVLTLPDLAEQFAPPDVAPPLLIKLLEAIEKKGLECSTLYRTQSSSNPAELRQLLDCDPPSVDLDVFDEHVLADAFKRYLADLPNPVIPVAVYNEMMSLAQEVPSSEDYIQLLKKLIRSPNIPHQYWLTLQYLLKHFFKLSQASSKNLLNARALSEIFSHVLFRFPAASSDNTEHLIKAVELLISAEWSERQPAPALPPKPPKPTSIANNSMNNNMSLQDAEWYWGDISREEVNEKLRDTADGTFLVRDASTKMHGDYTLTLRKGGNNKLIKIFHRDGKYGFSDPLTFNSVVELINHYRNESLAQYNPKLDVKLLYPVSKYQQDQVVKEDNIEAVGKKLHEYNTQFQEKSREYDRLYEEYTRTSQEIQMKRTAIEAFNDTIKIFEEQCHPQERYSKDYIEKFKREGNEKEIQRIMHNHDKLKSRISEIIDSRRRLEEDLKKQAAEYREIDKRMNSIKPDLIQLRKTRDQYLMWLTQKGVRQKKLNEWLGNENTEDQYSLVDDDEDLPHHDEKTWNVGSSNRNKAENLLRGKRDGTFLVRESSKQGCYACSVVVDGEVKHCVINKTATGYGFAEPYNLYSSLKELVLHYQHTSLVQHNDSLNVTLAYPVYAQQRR

Going from Cc1ccc(S(=O)(=O)NCCC(C)(C)O)cc1-c1cncc(-c2cn(C)nc2C)n1 [Example 3, 3-[6-(1,3-Dimethyl-1H-pyrazol-4-yl)-pyrazin-2-yl]-N-(3-hydroxy-3-methyl-butyl)-4-methyl-benzenesulfonamide] to Cc1ccc(S(=O)(=O)NCC(C)(C)O)cc1-c1cncc(-c2cn(C)nc2C)n1 [Example 2, 3-[6-(1,3-Dimethyl-1H-pyrazol-4-yl)-pyrazin-2-yl]-N-(2-hydroxy-2-methyl-propyl)-4-methyl-benzenesulfonamide], the pIC50 rises from 5.99 to 6.35 (0.36 log units). The second is the more potent here.

Compared with Cc1ncc(-c2cncc(-c3cc(S(=O)(=O)N[C@H]4CC[C@H](O)CC4)ccc3C)n2)s1 [Example 5, Trans N-(4-Hydroxycyclohexyl)-4-methyl-3-(6-(2-methylthiazol-5-yl)pyrazin-2-yl)benzenesulfonamide], Cc1ccc(S(=O)(=O)N[C@H]2CC[C@H](O)CC2)cc1-c1cncc(-c2cccnc2)n1 [Example 11, Trans N-(4-Hydroxy-cyclohexyl)-4-methyl-3-(6-pyridin-3-yl-pyrazin-2-yl)-benzenesulfonamide] is 0.31 log units lower in pIC50: 6.08 for the first, 5.77 for the second. The first is the more potent here.

First: Cc1ccc(S(=O)(=O)NCC2(C)COC2)cc1-c1cncc(-c2cn(C)nc2C)n1 [Example 4, Trans 3-[6-(1,3-Dimethyl-1H-pyrazol-4-yl)-pyrazin-2-yl]-4-methyl-N-(3-methyl-oxetan-3-ylmethyl)-benzenesulfonamide]
Second: Cc1ccc(S(=O)(=O)NCCC(C)(C)O)cc1-c1cncc(-c2cn(CCN3CCOCC3)nc2C)n1 [Example 10, N-(3-Hydroxy-3-methyl-butyl)-4-methyl-3-{6-[3-methyl-1-(2-morpholin-4-yl-ethyl)-1H-pyrazol-4-yl]-pyrazin-2-yl}-benzenesulfonamide]
The pIC50 of the first is 1.02 log units higher: 6.53 for the first, 5.51 for the second. The first is the more potent here.

Compound Cc1ccc(S(=O)(=O)NCCC(C)(C)O)cc1-c1cncc(-c2cnn(CCN3CCOCC3)c2)n1 [Example 9, N-(3-Hydroxy-3-methyl-butyl)-4-methyl-3-{6-[1-(2-morpholin-4-yl-ethyl)-1H-pyrazol-4-yl]-pyrazin-2-yl}-benzenesulfonamide] has a pIC50 of 5.61.

Source: US9862711B2, “Pyrazine derivatives as phosphatidylinositol 3-kinase inhibitors” (NOVARTIS AG, priority 2014, dated 2018)
